From PubChem BioAssay AID330 (DTP/NCI, 2004)
Several values for one entry are separate records, joined by “and”; a condition that tells them apart may be missing. Equal entries are not always repeated. Toxic doses and inconclusive results are not listed.

System: P388 leukemia ip, CD2F1 mice, survival T/C
Test: NCI In Vivo Anticancer Drug Screen. Data for tumor model P388 Leukemia (intraperitoneal) in CD2F1 (CDF1) mice
Conditions: endpoint: median survival time, higher = longer survival
Outline: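 Mice carrying the transplanted tumor received test compound or vehicle. Survival was recorded in each group, and the value is the treated-group measurement divided by that of the vehicle-treated control group.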

[1] = dose: 60.0 mg/kg/injection, schedule: Q01DX005 (ip), vehicle: saline with Tween-80
[2] = dose: 120.0 mg/kg/injection, schedule: Q01DX005 (ip), vehicle: saline with Tween-80
[3] = dose: 50.0 mg/kg/injection, schedule: Q01DX005 (ip), vehicle: Klucel (hydroxypropylcellulose) (HPC)
[4] = dose: 100.0 mg/kg/injection, schedule: Q01DX005 (ip), vehicle: Klucel (hydroxypropylcellulose) (HPC)
[5] = dose: 200.0 mg/kg/injection, schedule: Q01DX005 (ip), vehicle: Klucel (hydroxypropylcellulose) (HPC)

What does the source list for `COC(=O)c1cc(-c2ccc(OC)cc2)c2c(=O)n(-c3ccccc3)[nH]c2n1`?
T/C [1]: 101 % of control; T/C [2]: 99 % of control; T/C (dose: 240.0 mg/kg/injection, schedule: Q01DX005 (ip), vehicle: saline with Tween-80): 94 % of control

What does the source list for `O=C(N/N=C/c1ccccn1)c1ccccc1[O-].O=C(N/N=C/c1ccccn1)c1ccccc1[O-].[Mn+2]`?
T/C [3]: 103 % of control; T/C [4]: 101 % of control; T/C [5]: 107 % of control

Which T/C (dose: 100.0 mg/kg/injection, schedule: Q04DX003 (ip), vehicle: saline with Tween-80) does the source give for `OC(Cc1cccnc1)(c1ccccc1)c1cccc2ccccc12` (stereo not given) here?
Its T/C is 90 % of control.

And the T/C (dose: 200.0 mg/kg/injection, schedule: Q04DX003 (ip), vehicle: saline with Tween-80)?
The T/C was 86 % of control.

`CN(C)CC(CN(C)C)C(=O)c1ccc(Cl)cc1` was tested. Which T/C (dose: 6.25 mg/kg/injection, schedule: Q01DX005 (ip), vehicle: saline) did it give?
The T/C was 107 % of control and 95 % of control and 96 % of control.

What about the T/C (dose: 12.5 mg/kg/injection, schedule: Q01DX005 (ip), vehicle: saline) of the same compound?
Its T/C is 107 % of control and 115 % of control and 116 % of control.

And the T/C (dose: 25.0 mg/kg/injection, schedule: Q01DX005 (ip), vehicle: saline)?
Its T/C is 107 % of control and 118 % of control and 124 % of control.

What about the T/C (dose: 50.0 mg/kg/injection, schedule: Q01DX005 (ip), vehicle: saline) of the same compound?
The T/C was 104 % of control and 113 % of control.

Which results are given for `O=C1CCOCCCOCCC(=O)OCCCO1`?
T/C [3]: 104 % of control; T/C [4]: 101 % of control; T/C [5]: 101 % of control

`CC(=O)OC1C(=O)C2(C)C(O)CC3OCC3(OC(C)=O)C2C(OC(=O)c2ccccc2)C2(O)CC(OC(=O)C(O)C(NC(=O)c3ccccc3)c3ccccc3)C(C)=C1C2(C)C` (stereo not given) was tested. Which T/C (dose: 2.5 mg/kg/injection, schedule: Q01DX005 (ip), vehicle: DMSO) did it give?
Its T/C is 106 % of control.

And the T/C (dose: 5.0 mg/kg/injection, schedule: Q01DX005 (ip), vehicle: DMSO)?
The T/C was 121 % of control.

And the T/C (dose: 20.0 mg/kg/injection, schedule: Q01DX005 (ip), vehicle: DMSO)?
Its T/C is 167 % of control.

Which T/C (dose: 4.0 mg/kg/injection, schedule: Q01DX009 (ip), vehicle: saline with Tween-80) does the source give for `O=CC(CO)C(C=O)n1ncc2ccccc21` (stereo not given) here?
Its T/C is 120 % of control.

And the T/C (dose: 8.0 mg/kg/injection, schedule: Q01DX001 (ip), vehicle: suspension in saline)?
The T/C was 108 % of control.

What about the T/C (dose: 16.0 mg/kg/injection, schedule: Q01DX001 (ip), vehicle: saline) of the same compound?
The T/C was 107 % of control.

And the T/C (dose: 16.0 mg/kg/injection, schedule: Q01DX001 (ip), vehicle: suspension in saline)?
Its T/C is 98 % of control.

What about the T/C (dose: 16.0 mg/kg/injection, schedule: Q01DX009 (ip), vehicle: saline with Tween-80) of the same compound?
The T/C was 119 % of control.

What about the T/C (dose: 32.0 mg/kg/injection, schedule: Q01DX001 (ip), vehicle: saline) of the same compound?
The T/C was 107 % of control and 116 % of control.

What about the T/C (dose: 32.0 mg/kg/injection, schedule: Q01DX001 (ip), vehicle: suspension in saline) of the same compound?
Its T/C is 94 % of control.

What about the T/C (dose: 64.0 mg/kg/injection, schedule: Q01DX001 (ip), vehicle: saline) of the same compound?
Its T/C is 172 % of control.

And the T/C (dose: 64.0 mg/kg/injection, schedule: Q01DX001 (ip), vehicle: suspension in saline)?
Its T/C is 108 % of control.

`OC(CNC1CCCCC1)CO/N=C1\CCSc2c(Cl)cccc21` (stereo not given) was tested. Which T/C (dose: 3.12 mg/kg/injection, schedule: Q04DX002 (ip), vehicle: Klucel (hydroxypropylcellulose) (HPC)) did it give?
The T/C was 94 % of control.

What about the T/C (dose: 6.25 mg/kg/injection, schedule: Q04DX002 (ip), vehicle: Klucel (hydroxypropylcellulose) (HPC)) of the same compound?
Its T/C is 99 % of control.

And the T/C (dose: 12.5 mg/kg/injection, schedule: Q04DX002 (ip), vehicle: Klucel (hydroxypropylcellulose) (HPC))?
Its T/C is 103 % of control.

What about the T/C (dose: 25.0 mg/kg/injection, schedule: Q04DX002 (ip), vehicle: Klucel (hydroxypropylcellulose) (HPC)) of the same compound?
Its T/C is 100 % of control.

And the T/C (dose: 100.0 mg/kg/injection, schedule: Q04DX002 (ip), vehicle: Klucel (hydroxypropylcellulose) (HPC))?
Its T/C is 96 % of control.

And the T/C (dose: 200.0 mg/kg/injection, schedule: Q04DX002 (ip), vehicle: Klucel (hydroxypropylcellulose) (HPC))?
Its T/C is 87 % of control.

What does the source list for `CCC(C)C(NC(=O)C(Cc1cnc[nH]1)N(C(=O)OCc1ccccc1)C(=O)OCc1ccccc1)C(=O)OCc1ccccc1` (stereo not given)?
T/C (dose: 50.0 mg/kg/injection, schedule: Q01DX005 (ip), vehicle: saline with Tween-80): 100 % of control; T/C (dose: 100.0 mg/kg/injection, schedule: Q01DX005 (ip), vehicle: saline with Tween-80): 93 % of control

Which T/C [1] does the source give for `O=c1c(Cc2c(-c3ccccc3)[nH]c3ccccc23)coc2ccccc12` here?
The T/C was 90 % of control.

And the T/C [2]?
The T/C was 89 % of control.

`OC1(c2ccccc2)CSC2=Nc3ccccc3C3CCN1N23` (stereo not given) was tested. Which T/C (dose: 12.5 mg/kg/injection, schedule: Q01DX009 (ip), vehicle: saline with Tween-80) did it give?
The T/C was 108 % of control and 87 % of control.

And the T/C (dose: 100.0 mg/kg/injection, schedule: Q01DX009 (ip), vehicle: saline with Tween-80)?
The T/C was 122 % of control and 95 % of control.

And the T/C (dose: 200.0 mg/kg/injection, schedule: Q01DX009 (ip), vehicle: saline with Tween-80)?
The T/C was 99 % of control.
